Source: publication PMC11887451, “Leveraging Immunogenic Cell Death to Enhance the Immune Response against Malignant Pleural Mesothelioma Tumors” (Journal of the American Chemical Society, 2025)

Tests used:
[1] = tested on: human malignant mesothelioma cell line JU77; experiment: MTT cytotoxicity assay, 72 h, JU77; format: cell-based; conditions: exposure time 72 h
[2] = tested on: murine malignant mesothelioma cell line AB12; experiment: MTT cytotoxicity assay, 72 h, AB12; format: cell-based, mouse; conditions: exposure time 72 h
[3] = tested on: AB12 cells in BALB/c mice; experiment: In vivo vaccination model; parameters: species or system mouse; conditions: within the first 30 days after vaccination, n = 8
Text: Initially, AB12 cells underwent pretreatment with varying concentrations of Au(III) complexes, and the induced cell death and release of desired ICD biomarkers were monitored over time. Upon reaching a cell death rate of 65%–75%, BALB/c mice (n = 8) were subcutaneously injected in the left flank with a vaccine containing 3 × 10^5 of live/dying/dead cells, while the vehicle group received injections of PBS. Seven days postvaccine administration, the immunized mice were rechallenged by inoculating the same number of live AB12 cells (without any prior treatment) into the right flanks (Figure 5A). The progression of tumor growth on the right flanks was monitored using a caliper.
AB12 cells were seeded into Cellstar 24-well plates (Greiner Bio-One) at a density of 1.8 × 104
cells/ml (1 ml per well) and allowed to grow exponentially for 16 hours. Subsequently, the
medium was replaced with 1 ml of fresh medium containing compounds of interest at
predetermined concentrations (with a minimum of 4 wells per treatment condition). These
concentrations were selected to induce 65-75% cell death.
Subsequently, the culture
medium was aspirated, and the cells were washed twice with 1 mL of PBS. The cell
concentration was adjusted to 3 × 10^5 cells (including dead/dying/live cells) per 100 μL of PBS,
and the ratio of dead/live cells was assessed using the Invitrogen Countess 3 cell counter. In
the subsequent experiment, BALB/c mice (8 mice per group) were subcutaneously injected
with 0.1 mL of AB12 cells (3 × 10^5 cells/mL, including dead/dying/live cells) or the
corresponding vehicle (PBS) on the left flank. Tumor growth was monitored daily.
After 7 days, the mice were subcutaneously injected with
0.1 mL of AB12 cells (3 × 10^5 cells/mL, live cells) on the right flank. Regular measurements
of body weights and tumor sizes were taken. Mice that developed palpable tumors were
euthanized for further analysis.

[4] = tested on: patient-derived Meso92 cell line (biphasic MPM); experiment: MTT cytotoxicity assay, 72 h, Meso92; format: cell-based, human; conditions: exposure time 72 h
[5] = tested on: human malignant mesothelioma cell line LO68; experiment: MTT cytotoxicity assay, 72 h, LO68; format: cell-based; conditions: exposure time 72 h
[6] = tested on: human nonmalignant mesothelioma cell line Met5A; experiment: MTT cytotoxicity assay, 72 h, Met5A; format: cell-based; conditions: exposure time 72 h
Text: Cell lines and culture conditions
Mouse malignant mesothelioma cancer cell line AB12, human nonmalignant mesothelioma cancer cell line Met5A (mesothelial cells), mouse macrophage cell line J774 and human monocytic cell line THP-1 were obtained from American Type Culture Collection (ATCC) (Rockville, MD, USA). Human malignant mesothelioma cell lines VMC23 (epithelial), Meso82 (sarcomatous), Meso92 (biphasic), were kindly provided by Prof. Walter Berger (Medical University of Vienna). All cells except for J774 were cultured in RPMI and J774 cells were cultured in DMEM. Both types of media were supplemented with 10% FBS and 1% penicillin-streptomycin (10,000 U/mL). Cells were grown in tissue culture flasks (75 cm2 and 25 cm2, SPL Life Sciences Co., Ltd., Korea). All cell lines were grown at 37 °C in a humidified atmosphere of 95% air and 5% CO 2 and passaged when they reached 80–90% confluency. All Au stock solutions were prepared in 1% DMSO in the respected medium, ensuring that cell viability was not inhibited. The Au concentration in the stock solutions was confirmed through inductively coupled plasma optical emission spectrometry. The stock solution of pemetrexed (10 mM) was prepared in Milli -Q water.
Inhibition of c ell viability assay
(§1) The cytotoxicity of compounds was determined using an MTT colorimetric test. The cells were harvested from culture flasks by trypsinization and seeded into Cellstar 96 -well microculture plates (Greiner Bio -One) at the seeding density of 6000 cells per well (6 × 10^4 cells/mL). After
(§2) the cells were allowed to resume exponential growth for 16 h, they were exposed to drugs at
(§3) different concentrations in media for 72 h. The drugs were diluted in a complete medium at the desired concentration added to each well (100 μL) and serially diluted in other wells. After exposure for 72 h, the media was replaced with MTT in media (5 mg/mL, 100 μL/well) and
(§4) incubated for an additional 50 min. Subsequently, the medium was aspirated, and the purple formazan crystals formed in viable cells were dissolved in DMSO (100 μL/well). Optical densities were measured at 570 nm using a BioTek Synergy H1 microplate and MultiskanTM SkyHigh plate readers. The quantity of viable cells was expressed in terms of treated/control (T/C) values in comparison to untreated control cells, and 50% inhibitory concentrations (IC 50) were calculated from concentration-effect curves by interpolation. An evaluation was based on means from at least three independent experiments, each comprising three replicat es per

HMGB1 in AB12 cells = experiment: HMGB1 detection, confocal microscopy; format: cell-based, mouse; conditions: AB12, 5 × IC50
Protocol: mL per dish). […] Afterwards, the […]
concentrations for 2 h at 37°C. […]
were stored in 1 mL of PBS. The confocal images were acquired by Laser Confocal Scanning […]
dishes were washed twice with 1 mL of PBS. The dishes were then incubated with HMGB1 […]
washed with 1 mL of PBS. Samples were stored in 1 mL of PBS. The confocal images were acquired by Laser Confocal Scanning Microscope (Leica SPE).
AB12 cells were seeded into the confocal dish (Biosharp) at a density of 3 × 10^5 cells/well (1 […]
mL per well). […] The cell culture […]
medium was aspirated and washed with PBS (2 × 1 ml). In a dimly lit setting, a solution of H2DCFDA (2',7'-dichlorodihydrofluorescein diacetate) in 1 × HBSS (10 μM, 1 mL) was added to each well and allowed to incubate for 15 min at 37 °C. Following this, the H 2DCFDA solution was aspirated and the wells were rinsed with HBSS (2 × 1 ml). Subsequently, the cells were treated with fresh colo urless cell culture medium containing compounds of interest at […]
Subsequently, the cells were treated with a culture medium containing 1 μM of Mitotracker TM Deep Red, 1 μM ER-Tracker™ Blue-White DPX and 1 μg/mL of Hoechst 33342 for 30 minutes. […] Images were captured using Laser Confocal Scanning Microscope (Leica SPE) and analyzed using the Microscope Software Platform LAS X Life Science. […]

[7] = tested on: patient-derived Meso84 cell line (sarcomatoid MPM); experiment: MTT cytotoxicity assay, 72 h, Meso84; format: cell-based, human; conditions: exposure time 72 h
Text: Human malignant mesothelioma cancer cell lines JU77 and LO68 were obtained from Cell Bank Australia (Children's Medical Research Institute, Westmead, Australia). Mouse malignant mesothelioma cancer cell line AB12, human nonmalignant mesothelioma cancer cell line Met5A (mesothelial cells), mouse macrophage cell line J774 and human monocytic cell line THP-1 were obtained from American Type Culture Collection (ATCC) (Rockville, MD, USA). Human malignant mesothelioma cell lines VMC23 (epithelial), Meso82 (sarcomatous), Meso92 (biphasic), were kindly provided by Prof. Walter Berger (Medical University of Vienna). All cells except for J774 were cultured in RPMI and J774 cells were cultured in DMEM. Both types of media were supplemented with 10% FBS and 1% penicillin-streptomycin (10,000 U/mL). Cells were grown in tissue culture flasks (75 cm2 and 25 cm2, SPL Life Sciences Co., Ltd., Korea). All cell lines were grown at 37 °C in a humidified atmosphere of 95% air and 5% CO 2 and passaged when they reached 80–90% confluency. All Au stock solutions were prepared in 1% DMSO in the respected medium, ensuring that cell viability was not inhibited.
as §1, §2, §3, §4
DMSO had not impact on the cell viability at the concentrations used.

[8] = tested on: patient-derived VMC23 cell line (epithelioid MPM); experiment: MTT cytotoxicity assay, 72 h, VMC23; format: cell-based, human; conditions: exposure time 72 h
[9] = tested on: extracellular HMGB1 from AB12 cells; experiment: Western blot of extracellular HMGB1 in supernatants; format: cell-based, mouse; conditions: AB12, 5 × IC50, 240 min
Protocol: cells were lysed with 200 µL of RIPA buffer, scraped, collected into 2 mL microtubes, sonicated for 45 sec on ice and centrifuged at 12000 × g for 20 min at 4 °C.
Protein concentration was measured by BCA Protein Assay Kit (PierceTM). 30 µg protein were reconstituted in loading buffer (5× Laemmli Buffer with 5% DTT) and heated at 95 °C for 10 min. Subsequently, the protein mixtures were resolved on 10% SDS-PAGE gels (BeyoGelTM)by electrophoresis ( 80 V for 20 min followed by 1 00 V for 60 min) and transferred onto a nitrocellulose membrane (250 mA for 2 h).
For Western Blot detection of extracellular HMGB1 protein, AB12 cells were seeded into Cellstar 6-well plates (Greiner Bio -One) at a density of 1 × 10^6 cells/well (2 ml per well). […]
After incubation with HRP-conjugated secondary antibodies (Catalogue Number: 7074P2, Cell Signaling Technology) in 2% BSA (w/v) in wash buffer at RT for 2 h, the membranes were washed with wash buffer 3 times for 5-10 min. Immune complexes were detected with SuperSignal™ West Atto Ultimate Sensitivity Substrate (A38554, Thermo Scientific) and analyzed using enhanced chemiluminescence imaging (Biorad). β-Actin was used as a loading control. […]
GA5010)). Luminescence was measured using Molecular Devices SpectraMax iD5 plate reader. […] The luminescence data was recorded for a total duration of 6 h following the treatment. […]

[10] = tested on: hepatocellular carcinoma tumors; parameters: method as in PMID 38261008, PMID 36827091; conditions: cited from earlier work
colon cancer cells = tested on: colon cancer cells; parameters: method as in PMID 33237764; conditions: immunocompetent mice; cited from earlier work

For `CCCC[N+](CCCC)=C1[S][Au-]2([S]1)[c]1ccccc1Cc1cccc[n+]12.F[P-](F)(F)(F)(F)F` (stereo not drawn) [2C], which IC50 [1] is on record?
The IC50 was 2700 ± 400 nM.

What about the IC50 [2] of the same molecule?
Its IC50 is 2700 ± 300 nM.

What about the “mice that developed tumors after vaccination” value [3] of the same molecule?
Its value is “≈ 50%”.

And the IC50 [4]?
The IC50 was 3100 ± 700 nM.

And the IC50 [5]?
The IC50 was 3000 ± 300 nM.

And the IC50 [6]?
The IC50 was 1400 nM.

And the “HMGB1 expression, confocal microscopy” value (HMGB1 in AB12 cells)?
Its value is “confirmed by confocal microscopy”.

What about the IC50 [7] of the same molecule?
The IC50 was 3900 ± 700 nM.

And the IC50 [8]?
The IC50 was 2400 ± 500 nM.

What about the “extracellular HMGB1 in supernatant, Western Blot” value [9] of the same molecule?
Its value is “presence of extracellular HMGB1”.

For `CCn1cc[n+](CC)[c]1[Au-][C]#CCOC(=O)[C@@]1(C)CC[C@]2(C)CC[C@]3(C)C(=CC(=O)[C@@H]4[C@@]5(C)CC[C@H](OC(=O)CCCCC[P+](c6ccccc6)(c6ccccc6)c6ccccc6)C(C)(C)[C@@H]5CC[C@]43C)[C@@H]2C1.[Br-]` [Au4], which “tumor-free time of vaccinated mice” value [10] is on record?
The value was “more than 30 days”.

With `Cc1cc(C)c(-n2cc[n+](CCO)[c]2[Au-][c]2n(-c3c(C(C)C)cccc3C(C)C)c3c([n+]2-c2c(C(C)C)cccc2C(C)C)C(=O)c2ccccc2C3=O)c(C)c1` [Au1] as the molecule, how does the “tumor-free time of vaccinated mice” value (colon cancer cells) read?
Its value is “more than 42 days”.
